Data as given in patent US20250230193A1, “CYCLIC COMPOUND HAVING SELECTIVE KRAS INHIBITORY EFFECT ON HRAS AND NRAS” (CHUGAI SEIYAKU KABUSHIKI KAISHA, priority 2022, published 2025).
*1 amine or outer side, *2 acyl side, *3 side chain or, on linkers, in order; H or OH if unused. Where a SMILES comes first, the peptide text is derived from it. Bridges are numbered along the chain shown (N, C = ends). [ ]: non-standard residue; d: D form. The star is where a group is joined. hPhe(3-Cl-4-CF3) = N[C@@H](CCc1ccc(C(F)(F)F)c(Cl)c1)C(=O)O; X50 = C=CCN([C@@H](Cc1ccc(C)cc1)C(=O)[*:2])[*:1]; 3Oxa8azabicyclo(3.2.1)octane = C1CC2COCC1N2*; NEtPhe(4-Me) = CCN[C@@H](Cc1ccc(C)cc1)C(=O)O; NMeGly(cPent) = CN[C@H](C(=O)O)C1CCCC1; NMeD = CN[C@@H](CC(=O)O)C(=O)O; NMeL = CN[C@@H](CC(C)C)C(=O)O; Morpholide = C1CN(*)CCO1; Ac5c = NC1(C(=O)O)CCCC1; Sar = CNCC(=O)O

Legend:
[1] = molecular target: GDP-bound HRAS wild-type protein (Homo sapiens, UniProt P01112); test: Binding to HRAS by surface plasmon resonance (SPR), Single Cycle Kinetics; conditions: for HRAS/KRAS (ratio of KD value with respect to HRAS to KD value with respect to KRAS) / HRAS/KRAS (ratio of KD value for HRAS to KD value for KRAS): GDP-bound HRAS wild-type vs GDP-bound KRAS wild-type
[2] = molecular target: GDP-bound NRAS wild-type protein (Homo sapiens, UniProt P01111); test: Binding to NRAS by surface plasmon resonance (SPR), Single Cycle Kinetics; conditions: for NRAS/KRAS (ratio of KD value with respect to NRAS to KD value with respect to KRAS) / NRAS/KRAS (ratio of KD value for NRAS to KD value for KRAS): GDP-bound NRAS wild-type vs GDP-bound KRAS wild-type
[3] = SPR, GDP-bound wild-type proteins

GDP-bound HRAS wild-type protein, sequence (P01112 whole entry): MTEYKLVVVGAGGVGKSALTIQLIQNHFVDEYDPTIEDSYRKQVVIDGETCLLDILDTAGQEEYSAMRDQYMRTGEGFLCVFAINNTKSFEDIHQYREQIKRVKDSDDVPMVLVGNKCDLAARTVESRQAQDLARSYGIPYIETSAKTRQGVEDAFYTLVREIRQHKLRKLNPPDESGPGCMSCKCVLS
GDP-bound NRAS wild-type protein, sequence (P01111 whole entry): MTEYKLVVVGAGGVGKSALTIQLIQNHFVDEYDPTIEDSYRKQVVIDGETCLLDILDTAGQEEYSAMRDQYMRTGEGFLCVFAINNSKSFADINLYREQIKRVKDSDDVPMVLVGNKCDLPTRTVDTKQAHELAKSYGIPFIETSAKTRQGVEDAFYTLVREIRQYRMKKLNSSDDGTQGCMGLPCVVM

CCCOC[C@H]1C(=O)N[C@@H]([C@@H](C)CC)C(=O)N(C)CC(=O)N(C)[C@H]2C/C=C\CCN(C2=O)[C@@H](CC2CCCCC2)C(=O)N(C)CC(=O)N[C@@H](CCc2cc(F)c(C(F)(F)F)c(F)c2)C(=O)N2C[C@H](OCC)C[C@H]2C(=O)NC2(CC(C)(C)C2)C(=O)N(C)[C@@H](C(CC)CC)C(=O)N(C)[C@H](C(=O)N(C)C)CC(=O)N1C [PP2501]
HRAS/KRAS (ratio of KD value with respect to HRAS to KD value with respect to KRAS) ([1]; SPR): A (a compound having 10 or more and less than 20 is denoted as A)
NRAS/KRAS (ratio of KD value with respect to NRAS to KD value with respect to KRAS) ([2]; SPR): AA (a compound having 20 or more is denoted as AA)

CCO[C@@H]1C[C@H]2C(=O)NC3(CC(C)(C)C3)C(=O)N(C)[C@@H](C(CC)CC)C(=O)N(C)[C@H](C(=O)N3CCCCC3)CC(=O)N(C)[C@H]3CCC/C=C/c4ccc(cc4)C[C@@H](C(=O)N(C)CC(=O)N[C@@H](CCc4cc(F)c(C(F)(F)F)c(F)c4)C(=O)N2C1)N1CC/C=C\C[C@@H](C1=O)N(C)C(=O)CN(C)C(=O)[C@H]([C@@H](C)CC)NC3=O [PP2952]
HRAS/KRAS (ratio of KD value with respect to GDP-bound HRAS wild-type protein to KD value with respect to KRAS) ([1]; class symbols): A (a compound having 10 or more and less than 20 is denoted as A)
NRAS/KRAS (ratio of KD value with respect to GDP-bound NRAS wild-type protein to KD value with respect to KRAS) ([2]; class symbols): AA (a compound having 20 or more is denoted as AA)

CCC[C@H]1C(=O)N[C@@H]([C@@H](C)CC)C(=O)N(C)CC(=O)N(C)[C@H]2C/C=C\CCN(C2=O)[C@@H](Cc2ccc(C)cc2)C(=O)N(C)CC(=O)N[C@@H](CCc2cc(F)c(C(F)(F)F)c(F)c2)C(=O)N2C[C@H](OCC)C[C@H]2C(=O)NC2(CC(C)(C)C2)C(=O)N(C)[C@@H](CC(F)(F)F)C(=O)N(C)[C@H](C(=O)N(C)C)CC(=O)N1C [PP2993]
HRAS/KRAS (ratio of KD value with respect to GDP-bound HRAS wild-type protein to KD value with respect to KRAS) [1, 3]: A (a compound having 10 or more and less than 20 is denoted as A)
NRAS/KRAS (ratio of KD value with respect to GDP-bound NRAS wild-type protein to KD value with respect to KRAS) [2, 3]: A (a compound having 10 or more and less than 20 is denoted as A)

CCC[C@H]1C(=O)N[C@@H](CC(C)C)C(=O)N(CC)CC(=O)N(C)[C@H]2C/C=C\CCN(C2=O)[C@@H](Cc2ccc(C)cc2)C(=O)N(C)CC(=O)N[C@@H](CCc2cc(F)c(C(F)(F)F)c(F)c2)C(=O)N2C[C@H](OCC)C[C@H]2C(=O)NC2(CC(C)(C)C2)C(=O)N(C)[C@@H](C2CCCC2)C(=O)N(C)[C@H](C(=O)N(C)C)CC(=O)N1C [PP2516]
HRAS/KRAS (ratio of KD value with respect to HRAS to KD value with respect to KRAS) ([1]; SPR): B (a compound having 3 or more and less than 10 is denoted as B)
NRAS/KRAS (ratio of KD value with respect to NRAS to KD value with respect to KRAS) ([2]; SPR): A (a compound having 10 or more and less than 20 is denoted as A)

C#CCN1CC(=O)N(C)[C@H]2C/C=C\CCN(C2=O)[C@@H](Cc2ccc(C)cc2)C(=O)N(C)CC(=O)N[C@@H](CCc2cc(F)c(C(F)(F)F)c(F)c2)C(=O)N2C[C@H](OCC)C[C@H]2C(=O)NC2(CC(C)(C)C2)C(=O)N(C)[C@@H](C2CCCC2)C(=O)N(C)[C@H](C(=O)N(C)C)CC(=O)N(C)[C@@H](CC(C)C)C(=O)N[C@@H]([C@@H](C)CC)C1=O [PP2052]
HRAS/KRAS (ratio of KD value with respect to HRAS to KD value with respect to KRAS) ([1]; SPR): A (a compound having 10 or more and less than 20 is denoted as A)
NRAS/KRAS (ratio of KD value with respect to NRAS to KD value with respect to KRAS) ([2]; SPR): A (a compound having 10 or more and less than 20 is denoted as A)

CC[C@H](C)[C@@H]1NC(=O)[C@H](CC)N(C)C(=O)C[C@@H](C(=O)N(C)C)N(CC)C(=O)[C@H](C2CCCC2)N(C)C(=O)C2(CCC2)NC(=O)[C@@H]2C[C@@H](N3CCC(F)(F)CC3)CN2C(=O)[C@H](CCc2cc(F)c(C(F)(F)F)c(F)c2)NC(=O)CN(C)C(=O)[C@H](Cc2ccc(C(F)(F)F)cc2)N2CCCC[C@@H](C2=O)N(C)C(=O)CN(C)C1=O [PP0733]
HRAS/KRAS (ratio of KD value with respect to GDP-bound HRAS wild-type protein to KD value with respect to KRAS) ([1]; SPR): B (a compound having 3 or more and less than 10 is denoted as B)
NRAS/KRAS (ratio of KD value with respect to GDP-bound NRAS wild-type protein to KD value with respect to KRAS) ([2]; SPR): B (a compound having 3 or more and less than 10 is denoted as B)

CCO[C@@H]1C[C@H]2C(=O)NC3(CCC3)C(=O)N(C)[C@@H](C3CCCC3)C(=O)N(C)[C@H](C(=O)N3CCCCC3)CC(=O)N(C)[C@H]3CCC/C=C/c4ccc(cc4)C[C@@H](C(=O)N(C)CC(=O)N[C@@H](CCc4ccc(Cl)c(Cl)c4)C(=O)N2C1)N1CC/C=C\C[C@@H](C1=O)N(C)C(=O)CN(C1CC1)C(=O)[C@H]([C@@H](C)CC)NC3=O [PP2958]
HRAS/KRAS (ratio of KD value with respect to GDP-bound HRAS wild-type protein to KD value with respect to KRAS) ([1]; class symbols): A (a compound having 10 or more and less than 20 is denoted as A)
NRAS/KRAS (ratio of KD value with respect to GDP-bound NRAS wild-type protein to KD value with respect to KRAS) ([2]; class symbols): AA (a compound having 20 or more is denoted as AA)

CC[C@H](C)[C@@H]1NC(=O)[C@H](CC(C)C)N(C)C(=O)C[C@@H](C(=O)N2C3CCC2COC3)N(C)C(=O)[C@H](C2CCCC2)N(C)C(=O)C2(CCCC2)NC(=O)[C@@H]2CCCN2C(=O)[C@H](CCc2ccc(C(F)(F)F)c(Cl)c2)NC(=O)CN(C)C(=O)[C@H](Cc2ccc(C)cc2)N(CC)C(=O)CN(C)C(=O)CN(C)C1=O [PP0051] ([NMeL]I[Sar][Sar][NEtPhe(4-Me)][Sar][hPhe(3-Cl-4-CF3)]P[Ac5c][NMeGly(cPent)][NMeD]-{3Oxa8azabicyclo(3.2.1)octane}; lactam N-11)
HRAS/KRAS (ratio of KD for GDP-bound HRAS wild-type to KD for KRAS) ([1]; SPR): C (A compound having a KD ratio of 0.1 or more and less than 3 is denoted as C)
NRAS/KRAS (ratio of KD for GDP-bound NRAS wild-type to KD for KRAS) ([2]; SPR): C (A compound having a KD ratio of 0.1 or more and less than 3 is denoted as C)

C=CCN1C(=O)CN(C)C(=O)CN(C)C(=O)[C@H]([C@@H](C)CC)NC(=O)[C@H](CC(C)C)N(C)C(=O)C[C@@H](C(=O)N2CCOCC2)N(C)C(=O)[C@H](C2CCCC2)N(C)C(=O)C2(CCCC2)NC(=O)[C@@H]2CCCN2C(=O)[C@H](CCc2ccc(C(F)(F)F)c(Cl)c2)NC(=O)CN(C)C(=O)[C@@H]1Cc1ccc(C)cc1 [PP0100] ([NMeL]I[Sar][Sar][X50][Sar][hPhe(3-Cl-4-CF3)]P[Ac5c][NMeGly(cPent)][NMeD]-Morpholide; lactam N-11)
HRAS/KRAS (ratio of KD for GDP-bound HRAS wild-type to KD for KRAS) ([1]; SPR): C (A compound having a KD ratio of 0.1 or more and less than 3 is denoted as C)
NRAS/KRAS (ratio of KD for GDP-bound NRAS wild-type to KD for KRAS) ([2]; SPR): B (a compound having 3 or more and less than 10 is denoted as B)

CCC[C@H]1C(=O)N[C@@H]([C@@H](C)CC)C(=O)N(C)CC(=O)N(C)[C@H]2C/C=C\CCN(C2=O)[C@@H](Cc2ccc(C)cc2)C(=O)N(C)CC(=O)N[C@@H](CCc2cc(F)c(C(F)(F)F)c(F)c2)C(=O)N2CC3(CC3)C[C@H]2C(=O)NC2(CC(C)(C)C2)C(=O)N(C)[C@@H](CC(C)(C)C)C(=O)N(C)[C@H](C(=O)N(C)C)CC(=O)N1C [PP2997]
HRAS/KRAS (ratio of KD value with respect to GDP-bound HRAS wild-type protein to KD value with respect to KRAS) [1, 3]: B (a compound having 3 or more and less than 10 is denoted as B)
NRAS/KRAS (ratio of KD value with respect to GDP-bound NRAS wild-type protein to KD value with respect to KRAS) [2, 3]: A (a compound having 10 or more and less than 20 is denoted as A)

CCO[C@@H]1C[C@H]2C(=O)NC3(CCC3)C(=O)N(C)[C@@H](C3CCCC3)C(=O)N(C)[C@H](C(=O)N(C)CCOC)CC(=O)N(C)[C@@H](CC)C(=O)N[C@@H]([C@@H](C)CC)C(=O)N(C)CC(=O)N(C)[C@H]3C/C=C\CCN(C3=O)[C@@H](Cc3ccc(C(F)(F)F)cc3)C(=O)N(C)CC(=O)N[C@@H](CCc3ccc(C(F)(F)F)c(OC)c3)C(=O)N2C1 [PP1321]
HRAS/KRAS (ratio of KD value for GDP-bound HRAS wild-type protein to KD value for KRAS) ([1]; SPR, KD ratio class): B (a compound having 3 or more and less than 10 is denoted as B)
NRAS/KRAS (ratio of KD value for GDP-bound NRAS wild-type protein to KD value for KRAS) ([2]; SPR, KD ratio class): A (a compound having 10 or more and less than 20 is denoted as A)

CCO[C@@H]1C[C@H]2C(=O)NC3(CC(C)(C)C3)C(=O)N(C)[C@@H](C3CCCC3)C(=O)N3CCC[C@@H]3CC(=O)N(C)[C@@H](CC3CC3)C(=O)N[C@@H]([C@@H](C)CC)C(=O)N(C)CC(=O)N(C)[C@H]3C/C=C\CCN(C3=O)[C@@H](Cc3ccc(C(F)(F)F)cc3)C(=O)N(C)CC(=O)N[C@@H](CCc3cc(F)c(C(F)(F)F)c(F)c3)C(=O)N2C1 [PP1611]
HRAS/KRAS (ratio of KD value for HRAS to KD value for KRAS) ([1]; SPR): B (a compound having 3 or more and less than 10 is denoted as B)
NRAS/KRAS (ratio of KD value for NRAS to KD value for KRAS) ([2]; SPR): B (a compound having 3 or more and less than 10 is denoted as B)

CCCN1CC(=O)N(C)[C@H]2C/C=C\CCN(C2=O)[C@@H](Cc2ccc(C)cc2)C(=O)N(C)CC(=O)N[C@@H](CCc2ccc(C(F)(F)F)c(OC)c2)C(=O)N2C[C@H](OCC)C[C@H]2C(=O)NC2(CC(C)(C)C2)C(=O)N(C)[C@@H](C2CCCC2)C(=O)N(C)[C@H](C(=O)N(C)C)CC(=O)N(C)[C@@H](CC)C(=O)N[C@@H]([C@@H](C)CC)C1=O [PP2096]
HRAS/KRAS (ratio of KD value with respect to HRAS to KD value with respect to KRAS) ([1]; SPR): A (a compound having 10 or more and less than 20 is denoted as A)
NRAS/KRAS (ratio of KD value with respect to NRAS to KD value with respect to KRAS) ([2]; SPR): A (a compound having 10 or more and less than 20 is denoted as A)

CCC[C@H]1C(=O)N[C@@H]([C@@H](C)CC)C(=O)N(C)CC(=O)N(C)[C@H]2C/C=C\CCN(C2=O)[C@@H](Cc2ccc(C)cc2)C(=O)N(C)CC(=O)N[C@@H](CCc2cc(F)c(C(F)(F)F)c(F)c2)C(=O)N2C[C@@H](C)C[C@H]2C(=O)NC2(CCC2)C(=O)N(C)[C@@H](C2CCCC2)C(=O)N(C)[C@H](C(=O)N(C)CC)CC(=O)N1C [PP1860]
HRAS/KRAS (ratio of KD value for HRAS to KD value for KRAS) ([1]; SPR): A (a compound having 10 or more and less than 20 is denoted as A)
NRAS/KRAS (ratio of KD value for NRAS to KD value for KRAS) ([2]; SPR): A (a compound having 10 or more and less than 20 is denoted as A)
